Values belong to the molecule of their own block, whether it stands above or below them.
What was measured:
Format in all cases: physicochemical
[1] = variable humidity XRPD of crystalline Form 1; conditions: 25° C., XRPD at each RH
Method: In another method, crystalline Form 1 was subjected to variable humidity XRPD experiments. In this experiment, two relative humidity (RH) cycles were applied at 25° C. XRPD analysis was carried out in each specific relative humidity. Cycle 1: 40% RH (initial)-40% RH (3 h)-60% RH (3 h)-80% RH (3 h)-95% RH (3 h)-80% RH (3 h)-60% RH (3 h)-40% RH (3 h)-20% RH (3 h) 0% RH (3 h); Cycle 2: 20% RH (3 h)-40% RH (3 h).

[2] = XRPD monitoring over time of pure Form 1 from a saturated diethyl ether slurry
Method: The formation of Form 2 is indicated by the presence of an intense peak at 4.8° 2θ (FIG. 2), which is absent in pure samples of Form 1 (FIG. 1 and FIG. 3). To study the formation of Form 2, a saturated slurry of Compound A was prepared in diethyl ether, which produced pure Form 1 at time=0 hr, and this pure sample was monitored over time using XRPD analysis. A shoulder peak at 4.8° 2θ was detected after approx. 2 hours and increased in intensity compared to the original Form 1 peaks after 4 and 17 days (FIG. 4).

[3] = storage under ambient conditions followed by XRPD; conditions: two weeks of storage under ambient conditions (room temperature)

time until the Form 2 shoulder peak at 4.8° 2θ was detected ([2]; pure Form 1 at time=0 hr from saturated diethyl ether slurry, peak increased in intensity after 4 and 17 days): approx. 2 hours
Structure (SMILES): CCn1c(-c2cccnc2[C@H](C)OC)c2c3cc(ccc31)N1CCO[C@@H](C[C@H](NC(=O)[C@H](C(C)C)N(C)C(=O)C3(F)CCN(C(=O)C#CC(C)(C)N(C)C)CC3)C(=O)N3CCC[C@H](N3)C(=O)OCC(C)(C)C2)C1 (atropisomer, axis not shown) [Form 1]
solid form conversion at relative humidity higher than 80% RH ([1]; two RH cycles 0-95% RH, 3 h per step, RH higher than 80%): converted or partially converted to Form 2
solid form stability over time (XRPD) ([2]; pure Form 1 monitored up to 17 days): may produce a mixture of Forms 1 and 2 over time

solid form conversion at relative humidity lower than 80% ([1]; two RH cycles, RH lower than 80%): converted back to Form 1
Structure (SMILES): CCn1c(-c2cccnc2[C@H](C)OC)c2c3cc(ccc31)N1CCO[C@@H](C[C@H](NC(=O)[C@H](C(C)C)N(C)C(=O)C3(F)CCN(C(=O)C#CC(C)(C)N(C)C)CC3)C(=O)N3CCC[C@H](N3)C(=O)OCC(C)(C)C2)C1 (atropisomer, axis not shown) [Form 2]

solid form stability on storage (XRPD) [3]: converted to a disordered material
Structure (SMILES): CCn1c(-c2cccnc2[C@H](C)OC)c2c3cc(ccc31)N1CCO[C@@H](C[C@H](NC(=O)[C@H](C(C)C)N(C)C(=O)C3(F)CCN(C(=O)C#CC(C)(C)N(C)C)CC3)C(=O)N3CCC[C@H](N3)C(=O)OCC(C)(C)C2)C1 (atropisomer, axis not shown) [Form 4]

Reference: US20240352036A1, “CRYSTALLINE FORMS OF RAS INHIBITORS, COMPOSITIONS CONTAINING THE SAME, AND METHODS OF USE THEREOF” (Revolution Medicines, Inc., priority 2023, published 2024)
